Earlier results in US20230071314A1, “POLYMERIC COMPOSITIONS FOR SUSTAINED DELIVERY OF VMAT2 INHIBITORS” (Foresee Pharmaceuticals Co., Ltd., priority 2021, published 2023).
pKi: −log10 of the molar value. Read-outs that look alike come from different tables or passages of the source.

Columns and labels:
dopamine D2 = dopamine D2 (Homo sapiens, UniProt P14416); conditions: Harriott et al. 2018; read-out: off-target binding affinity to dopamine D2
[1] = molecular target: serotonin 5-HT7 receptors (Homo sapiens, UniProt P34969); conditions: Harriott et al. 2018; read-out: off-target binding affinity to serotonin 5-HT7 receptors
Sequence of serotonin 5-HT7 receptors (P34969 whole entry): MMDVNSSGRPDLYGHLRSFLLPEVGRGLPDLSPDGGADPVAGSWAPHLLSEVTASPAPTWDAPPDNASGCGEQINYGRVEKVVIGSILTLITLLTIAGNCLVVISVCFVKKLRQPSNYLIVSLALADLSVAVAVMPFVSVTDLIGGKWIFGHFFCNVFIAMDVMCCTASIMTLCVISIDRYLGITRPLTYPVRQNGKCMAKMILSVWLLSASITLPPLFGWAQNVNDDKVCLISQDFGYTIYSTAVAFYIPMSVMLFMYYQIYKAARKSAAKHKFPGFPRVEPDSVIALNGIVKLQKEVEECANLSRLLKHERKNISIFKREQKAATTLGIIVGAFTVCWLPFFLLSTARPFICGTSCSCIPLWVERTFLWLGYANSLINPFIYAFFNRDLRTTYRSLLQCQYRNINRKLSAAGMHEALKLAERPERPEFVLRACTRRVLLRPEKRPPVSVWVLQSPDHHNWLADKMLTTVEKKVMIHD

Sequence of dopamine D2 (P14416 1-414 isoform P14416-2): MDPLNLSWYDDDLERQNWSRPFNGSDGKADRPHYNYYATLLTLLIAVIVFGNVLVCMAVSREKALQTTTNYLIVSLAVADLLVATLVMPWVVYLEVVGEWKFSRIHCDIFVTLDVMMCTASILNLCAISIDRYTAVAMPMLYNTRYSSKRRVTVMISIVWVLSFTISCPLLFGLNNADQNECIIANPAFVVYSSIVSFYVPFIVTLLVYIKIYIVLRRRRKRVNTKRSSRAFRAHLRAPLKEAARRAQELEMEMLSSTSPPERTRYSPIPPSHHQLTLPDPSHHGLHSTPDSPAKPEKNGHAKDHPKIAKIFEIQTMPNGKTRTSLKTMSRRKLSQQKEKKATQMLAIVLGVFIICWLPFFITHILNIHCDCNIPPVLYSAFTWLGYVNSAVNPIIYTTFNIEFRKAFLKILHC

Row | Molecule | increase of cumulative release (Ivermectin loading increased from 1% to 2%) | increase of cumulative release (Ivermectin loading increased from 1% to 4%) | pKi (dopamine D2) | pKi [1]
1 | Ivermectin | 2.4-2.9 times | 3.1-3.7 times | – | –
2 | COc1cc2c(cc1OC)C1CC(O)C(CC(C)C)CN1CC2 [S,S,S-DHTBZ ((−)-α), [−]-α-dihydrotetrabenazine] | – | – | 6.74 | 7.15
3 | COc1cc2c(cc1OC)C1CC(O)C(CC(C)C)CN1CC2 [R,S,S-DHTBZ ((−)-β), [−]-β-dihydrotetrabenazine] | – | – | 7.28 | 8.23
